Experimental data taken from PubChem BioAssay AID1963967 (Molecular Pharmacology Branch, DTP, NCI, 2024).

Tested on: 855422-203-R-J1-PDC spheroids with HUVEC/MSC, viability
Assay: Anticancer human tumor 855422-203-R-J1-PDC patient-derived bladder carcinoma cell line growth inhibition [PI3K]
Details: for IC50: curve of first compound; for viability, T/C: stronger effect = lower value; active = viability on the fitted dose curve at most 10% of control; inactive = the rest
Source text: Combinatorial screen of targeted agents with the PI3K inhibitors inavolisib, alpelisib, duvelisib, and copanlisib in multi-cell type tumor spheroids
A high-throughput screen of multi-cell type tumor spheroids was designed to identify active combinations of targeted small molecules and PI3K pathway inhibitors. Complex spheroids include a stromal component modeled by human endothelial cells (HUVEC) and fibroblasts modeled by human mesenchymal stem cells (MSCs). The concentration ranges selected for each drug and investigational agent were based upon clinically achievable concentrations if the clinical Cmax of the agent was known.
Compounds. The drugs and investigational agents: inavolisib (NSC800729), alpelisib (NSC765974), duvelisib (NSC772469), copanlisib (NSC816437), ipatasertib (NSC767898), afuresertib (NSC778305), talazoparib (NSC767125), sapanisertib (NSC764658), selumetinib (NSC741078), tovorafenib (DAY101, NSC766906), vemurafenib (NSC761431), ravoxertinib (NSC781343), sotorasib (NSC818433), MRTX1133 (NSC 836407), abemaciclib (NSC 768073), palbociclib (NSC758247), venetoclax (NSC 766270), SY5609 (NSC837396), enzalutamide (NSC755605), and darolutamide (NSC825331), were obtained from the National Cancer Institute (NCI) Developmental Therapeutics Program Chemical Repository. The FDA-approved anticancer drug set is available from the NCI Developmental Therapeutics Program. […] The stock solutions were prepared in dimethyl sulfoxide (DMSO, Sigma-Aldrich, St. Louis, MO, cat. D2650) at 800-fold the tested concentration and stored at -70 degrees C prior to their use. All drugs and investigational agents were tested over a range starting from a high concentration at or near the clinical Cmax and decreasing in half-log increments. If the clinical Cmax for an agent had not been determined, the highest concentration tested was 10 microM.
Cell Culture. All cells were maintained in an incubator at 37 degrees C and 5% CO2 with 95% humidity. The PDC lines were cultured according to standard operating procedures established by the NCI PDMR (https://pdmr.cancer.gov/sops/default.htm). All PDCs were thawed and cultured in Matrigel-coated flasks prepared with a working solution of 1X Ham's F-12 nutrient mix, without supplementation (Invitrogen, Waltham, MA, cat. 11765054), 100 U/mL penicillin-streptomycin (Invitrogen, cat. 15140122), and 2.5% Matrigel (Corning Inc., Corning, NY, cat. 354248) for the first three passages. The 354836-022-R-J1-PDC, 475296-252-R-J1-PDC, and 997726-040-R-J2-PDC lines were cultured in 6A media, which includes advanced DMEM/F-12 (Thermo Fisher Scientific, cat. 12634028), 10 mM HEPES (Thermo Fisher Scientific, cat. 15630080), 1X GlutaMAX supplement (Thermo Fisher Scientific, cat. 35050061), 0.1 mg/mL primocin (InvivoGen, San Diego, CA, cat. ant-pm-2), 10% defined fetal bovine serum, heat inactivated (HyClone Laboratories Inc., Logan, UT, cat. SH30070.03HI), 50% L-WRN conditioned media (ATCC, cat. CRL-3276), 1.25 mM N-Acetyl-L-cysteine (Sigma-Aldrich, cat. A9165), 10 mM nicotinamide (Sigma-Aldrich, cat. N0636), 1X B-27 supplement (Thermo Fisher Scientific, cat. 17504044), 1X N-2 supplement (Thermo Fisher Scientific, cat. 17502048), and 10 microM Y-27632 dihydrochloride (Tocris Bioscience, Bristol, United Kingdom, cat. 1254). The 624824-186-R-J2-PDC line was cultured in 6C/Colon 1B media, which includes all 6A media components plus 50 ng/mL human EGF recombinant protein (Thermo Fisher Scientific, cat. PHG0311). […]

[1] = second compound 0.0316 µM, first compound 0.0316 µM
[2] = second compound 0.0316 µM, first compound 0.1 µM
[3] = second compound 0.0316 µM, first compound 0.316 µM
[4] = second compound 0.0316 µM, first compound 1 µM
[5] = second compound 0.0316 µM, first compound 3.16 µM
[6] = second compound 0.0316 µM, first compound 10 µM
[7] = second compound 0.1 µM, first compound 0.0316 µM
[8] = second compound 0.1 µM, first compound 0.1 µM
[9] = second compound 0.1 µM, first compound 0.316 µM
[10] = second compound 0.1 µM, first compound 1 µM
[11] = second compound 0.1 µM, first compound 3.16 µM
[12] = second compound 0.1 µM, first compound 10 µM
[13] = second compound 0.316 µM, first compound 0.0316 µM
[14] = second compound 0.316 µM, first compound 0.1 µM
[15] = second compound 0.316 µM, first compound 0.316 µM
[16] = second compound 0.316 µM, first compound 1 µM
[17] = second compound 0.316 µM, first compound 3.16 µM
[18] = second compound 0.316 µM, first compound 10 µM
[19] = second compound 1 µM, first compound 0.0316 µM
[20] = second compound 1 µM, first compound 0.1 µM
[21] = second compound 1 µM, first compound 0.316 µM
[22] = second compound 1 µM, first compound 1 µM
[23] = second compound 1 µM, first compound 3.16 µM
[24] = second compound 1 µM, first compound 10 µM
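Note: agents incubated with spheroids for one week before read-out.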
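Throughout, for viability, T/C: 100% = DMSO vehicle-treated control wells.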

C=CC(=O)N1CCN(c2nc(=O)n(-c3c(C)ccnc3C(C)C)c3nc(-c4c(O)cccc4F)c(F)cc23)C(C)C1 (centres undefined) + CC(Nc1ncnc2nc[nH]c12)c1cc2cccc(Cl)c2c(=O)n1-c1ccccc1
> 10000 nM: IC50 (second compound 0.0316 µM) | IC50 (second compound 0.1 µM) | IC50 (second compound 0.316 µM) | IC50 (second compound 1 µM) | IC50 (second compound 3.16 µM) | IC50 (second compound 10 µM)
inactive: viability, T/C [1] 107% | viability, T/C [2] 91.1% | viability, T/C [3] 112% | viability, T/C [4] 95% | viability, T/C [5] 128% | viability, T/C [6] 133% | viability, T/C [7] 102% | viability, T/C [8] 90.7% | viability, T/C [9] 109% | viability, T/C [10] 110% | viability, T/C [11] 119% | viability, T/C [12] 129% | viability, T/C [13] 97.5% | viability, T/C [14] 92% | viability, T/C [15] 98.3% | viability, T/C [16] 121% | viability, T/C [17] 122% | viability, T/C [18] 122% | viability, T/C [19] 100% | viability, T/C [20] 98.7% | viability, T/C [21] 112% | viability, T/C [22] 117% | viability, T/C [23] 122% | viability, T/C [24] 110% | viability, T/C (second compound 3.16 µM, first compound 0.0316 µM) 102% | viability, T/C (second compound 3.16 µM, first compound 0.1 µM) 102% | viability, T/C (second compound 3.16 µM, first compound 0.316 µM) 104% | viability, T/C (second compound 3.16 µM, first compound 1 µM) 115% | viability, T/C (second compound 3.16 µM, first compound 3.16 µM) 116% | viability, T/C (second compound 3.16 µM, first compound 10 µM) 101% | viability, T/C (second compound 10 µM, first compound 0.0316 µM) 108% | viability, T/C (second compound 10 µM, first compound 0.1 µM) 90.4% | viability, T/C (second compound 10 µM, first compound 0.316 µM) 104% | viability, T/C (second compound 10 µM, first compound 1 µM) 102% | viability, T/C (second compound 10 µM, first compound 3.16 µM) 115% | viability, T/C (second compound 10 µM, first compound 10 µM) 105%

CC(C)NCC(C(=O)N1CCN(c2ncnc3c2C(C)CC3O)CC1)c1ccc(Cl)cc1 (centres undefined) + CC(Nc1ccc2c(c1)OCCn1cc(N3C(=O)OCC3C(F)F)nc1-2)C(N)=O
1120 nM: IC50 (second compound 0.01 µM)
inactive: viability, T/C (second compound 0.00316 µM, first compound 0.0316 µM) 107% | viability, T/C (second compound 0.00316 µM, first compound 0.1 µM) 65.8% | viability, T/C (second compound 0.00316 µM, first compound 0.316 µM) 70.4% | viability, T/C (second compound 0.00316 µM, first compound 1 µM) 45.3% | viability, T/C (second compound 0.00316 µM, first compound 3.16 µM) 38.7% | viability, T/C (second compound 0.00316 µM, first compound 10 µM) 20.4% | viability, T/C (second compound 0.01 µM, first compound 0.0316 µM) 82.2% | viability, T/C (second compound 0.01 µM, first compound 0.1 µM) 65.8% | viability, T/C (second compound 0.01 µM, first compound 0.316 µM) 71.3% | viability, T/C (second compound 0.01 µM, first compound 1 µM) 51.5% | viability, T/C (second compound 0.01 µM, first compound 3.16 µM) 32.2% | viability, T/C (second compound 0.01 µM, first compound 10 µM) 18.4% | viability, T/C [1] 66.6% | viability, T/C [2] 70% | viability, T/C [3] 67.7% | viability, T/C [4] 49.1% | viability, T/C [5] 34.8% | viability, T/C [6] 16.4% | viability, T/C [7] 65.8% | viability, T/C [8] 63.6% | viability, T/C [9] 61.9% | viability, T/C [10] 42.8% | viability, T/C [11] 27.2% | viability, T/C [12] 12.4% | viability, T/C [13] 47.6% | viability, T/C [14] 49.6% | viability, T/C [15] 45.8% | viability, T/C [16] 38.3% | viability, T/C [17] 24% | viability, T/C [18] 11.9% | viability, T/C [19] 39.2% | viability, T/C [20] 36.5% | viability, T/C [21] 31.4% | viability, T/C [22] 28.3% | viability, T/C [23] 20.9% | viability, T/C [24] 10.5%
671 nM: IC50 (second compound 0.1 µM)
1160 nM: IC50 (second compound 0.0316 µM)
< 31.6 nM: IC50 (second compound 0.316 µM) | IC50 (second compound 1 µM)
836 nM: IC50 (second compound 0.00316 µM)
